From patent US20250249060A1, “APPLICATION METHOD OF ACTIVE PORTION OF LIGUSTICUM CHUANXIONG IN PREPARATION OF ANTI-GOUT DRUG” (Shaanxi University of Chinese Medicine, priority 2024, published 2025)

What was measured:
serum XOD = target: T1, serum XOD (Rattus norvegicus, UniProt P22985); experiment: Serum XOD activity in hyperuricemia rats; format: in vivo; conditions: model group 30 U/L
T1 construct: The activity of the serum XOD of hyperuricemia in rats is measured by using the colorimetry; from tissue; host or cells: serum of hyperuricemia rats
T1 sequence (P22985 whole entry): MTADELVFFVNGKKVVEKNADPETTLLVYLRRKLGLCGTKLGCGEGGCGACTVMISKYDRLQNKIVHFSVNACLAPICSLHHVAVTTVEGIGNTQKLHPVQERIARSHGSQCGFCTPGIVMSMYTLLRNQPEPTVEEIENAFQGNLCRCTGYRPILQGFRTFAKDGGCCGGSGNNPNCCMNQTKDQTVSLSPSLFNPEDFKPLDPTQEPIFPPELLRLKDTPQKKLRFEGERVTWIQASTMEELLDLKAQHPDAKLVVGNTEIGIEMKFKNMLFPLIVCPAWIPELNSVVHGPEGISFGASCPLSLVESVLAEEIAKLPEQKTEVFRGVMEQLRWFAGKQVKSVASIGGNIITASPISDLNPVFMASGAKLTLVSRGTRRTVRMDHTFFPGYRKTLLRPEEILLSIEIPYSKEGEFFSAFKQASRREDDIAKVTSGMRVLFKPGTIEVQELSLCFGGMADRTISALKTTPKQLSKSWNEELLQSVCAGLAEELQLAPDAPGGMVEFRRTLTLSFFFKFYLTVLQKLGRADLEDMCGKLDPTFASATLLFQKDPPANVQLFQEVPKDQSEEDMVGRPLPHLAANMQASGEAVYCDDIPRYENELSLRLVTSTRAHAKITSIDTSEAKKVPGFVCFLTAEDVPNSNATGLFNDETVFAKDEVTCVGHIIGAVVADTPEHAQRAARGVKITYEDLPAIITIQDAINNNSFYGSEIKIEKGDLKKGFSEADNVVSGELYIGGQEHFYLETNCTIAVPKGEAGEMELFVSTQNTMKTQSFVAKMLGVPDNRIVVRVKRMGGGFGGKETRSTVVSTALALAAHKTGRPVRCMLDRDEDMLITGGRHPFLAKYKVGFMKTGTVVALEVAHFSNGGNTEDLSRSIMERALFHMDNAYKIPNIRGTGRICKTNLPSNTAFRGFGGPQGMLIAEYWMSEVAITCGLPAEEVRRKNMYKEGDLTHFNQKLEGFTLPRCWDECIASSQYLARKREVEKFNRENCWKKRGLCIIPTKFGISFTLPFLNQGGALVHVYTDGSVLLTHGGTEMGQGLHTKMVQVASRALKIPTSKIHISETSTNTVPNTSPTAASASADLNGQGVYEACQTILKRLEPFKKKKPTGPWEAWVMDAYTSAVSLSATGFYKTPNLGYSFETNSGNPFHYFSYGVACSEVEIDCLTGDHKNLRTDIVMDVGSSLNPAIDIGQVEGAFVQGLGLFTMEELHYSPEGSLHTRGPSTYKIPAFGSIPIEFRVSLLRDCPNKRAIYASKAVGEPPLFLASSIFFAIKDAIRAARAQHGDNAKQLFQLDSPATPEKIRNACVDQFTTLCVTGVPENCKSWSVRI

[1] = target: xanthine oxidase (XOD, or XO) (Homo sapiens, UniProt P47989); experiment: Inhibitory effect of extracts/liquid-liquid extracts on XOD activity in vitro (96-well plate, absorbance at 295 nm); format: biochemical; conditions: tested samples as 1 mg/mL solution, allopurinol positive control 2 mg in 1 mL DMSO + 8 mL PBS
xanthine oxidase (XOD, or XO), sequence (P47989 whole entry, species assumed): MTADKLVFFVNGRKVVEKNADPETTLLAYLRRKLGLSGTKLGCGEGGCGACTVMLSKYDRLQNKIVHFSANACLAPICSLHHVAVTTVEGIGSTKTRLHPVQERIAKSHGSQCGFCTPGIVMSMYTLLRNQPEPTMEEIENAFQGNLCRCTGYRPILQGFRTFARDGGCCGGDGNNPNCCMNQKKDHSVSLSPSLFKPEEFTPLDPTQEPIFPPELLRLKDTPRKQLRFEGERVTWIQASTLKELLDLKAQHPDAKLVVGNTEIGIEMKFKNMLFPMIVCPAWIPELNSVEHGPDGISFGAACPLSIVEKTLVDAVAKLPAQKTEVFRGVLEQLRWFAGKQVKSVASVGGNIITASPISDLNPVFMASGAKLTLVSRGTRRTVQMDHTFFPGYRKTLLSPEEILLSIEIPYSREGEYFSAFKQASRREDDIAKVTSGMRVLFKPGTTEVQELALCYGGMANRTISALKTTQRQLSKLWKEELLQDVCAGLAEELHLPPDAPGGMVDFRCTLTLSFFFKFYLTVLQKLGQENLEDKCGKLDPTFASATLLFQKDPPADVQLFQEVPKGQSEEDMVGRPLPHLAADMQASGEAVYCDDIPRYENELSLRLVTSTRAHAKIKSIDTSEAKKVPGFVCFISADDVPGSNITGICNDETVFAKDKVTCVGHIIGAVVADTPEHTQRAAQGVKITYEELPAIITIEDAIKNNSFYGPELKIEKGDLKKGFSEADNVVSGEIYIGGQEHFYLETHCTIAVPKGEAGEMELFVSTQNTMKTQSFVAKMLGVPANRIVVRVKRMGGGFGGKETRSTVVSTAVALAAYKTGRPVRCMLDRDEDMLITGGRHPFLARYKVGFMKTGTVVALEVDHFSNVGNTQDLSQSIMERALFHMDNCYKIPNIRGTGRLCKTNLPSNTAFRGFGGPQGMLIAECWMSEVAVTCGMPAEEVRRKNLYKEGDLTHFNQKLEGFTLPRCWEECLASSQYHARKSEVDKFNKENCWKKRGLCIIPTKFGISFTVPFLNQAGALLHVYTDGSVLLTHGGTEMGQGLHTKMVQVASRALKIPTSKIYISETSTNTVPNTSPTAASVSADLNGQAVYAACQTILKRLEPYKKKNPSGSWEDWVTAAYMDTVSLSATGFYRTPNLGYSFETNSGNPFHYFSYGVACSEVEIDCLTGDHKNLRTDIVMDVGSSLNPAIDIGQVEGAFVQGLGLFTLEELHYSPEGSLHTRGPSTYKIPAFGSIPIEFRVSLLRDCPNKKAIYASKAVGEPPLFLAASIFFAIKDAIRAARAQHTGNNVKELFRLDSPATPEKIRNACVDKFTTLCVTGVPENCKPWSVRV
Protocol: 2.1 Buffer solution preparation: 0.4780 g of potassium phosphate monobasic (KH2PO4), 3.473 g of dipotassium hydrogen phosphate trihydrate (K2HPO4·3H2O) and 10.00 milligrams (mg) of ethylenediaminetetraacetic acid disodium salt (EDTA-2Na) are accurately weighed, and then placed in a 250 mL volumetric flask, and diluted to volume with distilled water to obtain the buffer solution. 2.2 Substrate preparation: 3.65 mg of xanthine is accurately weighed, and then added into the buffer solution to dilute to volume of 50 mL, and the xanthine is dissolved with ultrasound to obtain the substrate. 2.3 Enzyme solution preparation: XOD (5 units abbreviated as U) is taken and diluted with 50 mL of the buffer solution to obtain a diluted solution, and the diluted solution is subpackaged in sample bottles to obtain the enzyme solution, and kept in a temperature of −70 Celsius degree (° C.) for later use. […] After that the solution is filtered with a microporous filter membrane to obtain the samples to be tested for later use. 2.6 XOD activity determination: […] […] 2.8 A half maximal inhibitory concentration (IC50) value measurement: the active portion is prepared into 7 series concentrations to explore a dose-effect relationship based on results of the activity test, and IC50 value of the active portion is calculated through a GraphPad prism 8 software.

hyperuricemia mice = experiment: Serum uric acid level in hyperuricemia mice; format: in vivo; conditions: gavage 7 days
[2] = test system: acute gouty arthritis mice; experiment: Paw swelling degree in MSU-induced acute gouty arthritis mice; format: in vivo
Protocol: Livers of the mice are taken and kept in a temperature of −80° C. for later use. The normal control group of mice is injected with 0.1 mL of physiological saline onto right foot pad of the mice after 1 h gavage on the 7th day. […] 0 h, 4 h, 8 h, 12 h and 24 h after the MSU crystal suspension injection, paw volumes of the mice are measured by using the paw volume measuring instrument, the paw swelling degrees of the mice are calculated, and the calculation formula is as follows: [formula] • where Ct represents a paw volume at different time points after injection, and Co represents a paw volume at 0 h after injection.

[3] = Body weight gain of mice before and after treatment; conditions: allopurinol 40 mg/kg·d, colchicine 1 mg/kg·d, extract 500 mg/kg·d

| SMILES | serum XOD activity compared to the model group (serum XOD) | inhibition rate on activity of the XOD [1] [%] | decrease of serum uric acid level compared to the model group (hyperuricemia mice) [%] | serum uric acid level (hyperuricemia mice; model 286.82 μmol/L) [µmol/L] | decrease of paw swelling degree compared with the model group ([2]; 24 h after MSU injection) [%] | decrease of paw swelling degree compared with the model group ([2]; at 4 h, 8 h, 12 h and 24 h) | weight gain compared to the normal control group [3] |
| --- | --- | --- | --- | --- | --- | --- | --- |
| Oc1ncnc2[nH]ncc12 [allopurinol] | significantly decreases | 96.78 | 75.16 | 68.72 |  |  |  |
| COc1cc2c(c(OC)c1OC)-c1ccc(OC)c(=O)cc1[C@@H](NC(C)=O)CC2 [colchicine] |  |  |  |  | 15.32 | more than 9% | significantly lower |
